# Measurements as given in publication PMC10726475, “Atypical N-Alkyl to N-Noralkoxy Switch in a Dual cSRC/BCR-ABL1 Kinase Inhibitor Improves Drug Efflux and hERG Affinity” (ACS Medicinal Chemistry Letters, 2023).
# Read-outs that look alike come from different tables or passages of the source.
# Tests used:
# [1] = relative to simple tertiary amine 19, δ-position substituent; cited from earlier work
# [2] = Plasma protein binding by equilibrium dialysis, human; format: in vitro ADME; details: for fraction unbound at 5 μM: read-out: %Bound (converted)
# Excerpt: (§1) Human plasma (mixed gender) Ltd-People’s Hospital of Shandong Weifang Hi-
# (§2) Tech Industrial Development Zone (Batch No. P-
# (§3) Rat plasma (SD/mixed gender) BiolVT (Batch No. RAT501985)
# (§4) Mouse plasma (CD-1/mixed gender) IPHASE or BiolVT (Batch No. MSE427337)
# [3] = Plasma protein binding by equilibrium dialysis, mouse; format: in vitro ADME
# Excerpt: as §1, §2, §3, §4
# [4] = Plasma protein binding by equilibrium dialysis, rat; format: in vitro ADME; details: for fu, plasma % / %Unbound: 5 μM, equilibrium dialysis; for fraction unbound at 5 μM: read-out: fu, plasma % / %Unbound (converted)
# Excerpt: as §1, §2, §3, §4
# SUP-B15 cells = assay: Cell viability assay (CellTiter-Glo), SUP-B15; format: cell-based, human; details: read-out: IC50 (72 h), SUP-B15 Cell Line, mean ± SEM, n = 3, unadjusted for FBS
# KU812 cells = assay: Cell viability assay (CellTiter-Glo), KU812; format: cell-based, human; details: read-out: IC50 (72 h), KU812 Cell Line, mean ± SEM, n = 3, unadjusted for FBS
# MEG-01 cells = assay: Cell viability assay (CellTiter-Glo), MEG-01; format: cell-based, human; details: read-out: IC50 (72 h), MEG-01 Cell Line, mean ± SEM, n = 3, unadjusted for FBS
# Molt-4 cells = assay: Cell viability assay (CellTiter-Glo), Molt-4; format: cell-based, human; details: BCR-ABL1 negative
# [5] = Metabolic stability in rat liver microsomes; format: in vitro ADME
# [6] = Metabolic stability in human hepatocytes; format: in vitro ADME
# [7] = logD7.4 by shake-flask method; format: physicochemical; details: pH 7.4
# [8] = design: method as in NDA application no. 203341 Pharmacology Review(s) page 40; details: nude mice, 50 mg/kg po and 5 mg/kg iv dosing, ref NDA application no. 203341 Pharmacology Review(s) page 40; cited from earlier work
# [9] = Metabolic stability in rat hepatocytes; format: in vitro ADME
# Caco-2 cells = assay: Caco-2 cell permeability
# P-gp (MDR1) = assay: in vitro; details: dog, MDCK-MDR1
# Excerpt: (§5) Abbreviations: Papp, apparent permeability; AP, apical; BL, basolateral.
# [10] = Solubility in aqueous buffer at pH 7.4; format: physicochemical; details: aqueous buffer at pH 7.4, n = 1; read-out: aq sol.
# MDCKII-MDR1 cells = assay: MDCKII-MDR1 cell permeability
# Excerpt: as §5
# [11] = Metabolic stability in human liver microsomes; format: in vitro ADME
smiles,measurement,setting,value
COCCCN(C)C [compound 20],ΔpKa,[1],−0.8
CC(=O)N1CCN(c2ccc(OCC3COC(Cn4ccnc4)(c4ccc(Cl)cc4Cl)O3)cc2)CC1 (centres unmarked) [Ketoconazole],"fu, plasma % / %Unbound","[2]; 5 μM, equilibrium dialysis",0.82%
same,recovery,[2]; both sexes,98.6%
same,"remaining at 6 h, 5 μM",[2]; both sexes,102%
same,fraction unbound at 5 μM,[2]; both sexes,0.0082
same,%Bound,[3],99.42%
same,recovery,"[3]; both sexes, CD-1",96.8%
same,"remaining at 6 h, 5 μM","[3]; both sexes, CD-1",96.3%
same,fraction unbound at 5 μM,"[3]; both sexes, CD-1, 5 μM, equilibrium dialysis, read-out: fu, plasma % / %Unbound",0.0058
same,"fu, plasma % / %Unbound",[4],0.67%
same,recovery,"[4]; both sexes, SD",103%
same,fraction unbound at 5 μM,"[4]; both sexes, SD",0.0067
"N.N.[Cl][Pt][Cl] [Cisplatin, cisplatin]",IC50,SUP-B15 cells,987 ± 36 nM
same,IC50,KU812 cells,1500 ± 103 nM
same,IC50,MEG-01 cells,5100 ± 318 nM
same,IC50,"Molt-4 cells; read-out: IC50 (72 h), Molt-4 Cell Line, 72 h",1340 ± 89 nM
Nc1ccc2cc3ccccc3cc2c1 [2-Aminoanthracene],Count (# of wells),"Salmonella strain TA1535; TA1535+S9, 1.0E-06 M",12
same,Count (# of wells),"Salmonella strain TA1535; TA1535-S9, 1.0E-06 M",0
same,Positive Significance (- to +++),"Salmonella strain TA1535; TA1535-S9, 1.0E-06 M",-
same,Count (# of wells),"Salmonella strain TA100; TA100+S9, 1.0E-06 M",17
same,Positive Significance (- to +++),"Salmonella strain TA100; TA100+S9, 1.0E-06 M","++ (strong positive, if P < 0.01)"
same,Count (# of wells),"Salmonella strain TA100; TA100-S9, 1.0E-06 M",2
same,Positive Significance (- to +++),"Salmonella strain TA100; TA100-S9, 1.0E-06 M",-
same,Count (# of wells),"Salmonella strain TA98; TA98+S9, 2.0E-06 M",48
same,Count (# of wells),"Salmonella strain TA98; TA98-S9, 1.0E-06 M",1
same,Positive Significance (- to +++),"Salmonella strain TA98; TA98-S9, 1.0E-06 M",-
same,Count (# of wells),"Salmonella strain TA1537; TA1537+S9, 2.0E-06 M",11
same,Positive Significance (- to +++),"Salmonella strain TA1537; TA1537+S9, 2.0E-06 M","++ (strong positive, if P < 0.01)"
same,Count (# of wells),"Salmonella strain TA1537; TA1537-S9, 1.0E-06 M",0
same,Positive Significance (- to +++),"Salmonella strain TA1537; TA1537-S9, 1.0E-06 M",-
CN(C)CCCO [compound 21],ΔpKa,[1],−0.9
COc1cc(Nc2c(C#N)cnc3cc(OCCCN4CCN(C)CC4)c(OC)cc23)c(Cl)cc1Cl [bosutinib],"Remaining Percentage, 0.5 min",[5]; +Cofactors,100.00%
same,"Remaining Percentage, 15 min",[5]; +Cofactors,14.79%
same,"Remaining Percentage, 30 min",[5]; +Cofactors,5.02%
same,"Remaining Percentage, 45 min",[5]; +Cofactors,2.62%
same,"Remaining Percentage, 0.5 min",[5]; -Cofactors,100.00%
same,half-life at 1 h,"[5]; male, SD, pooled",5.3 min
same,microsomal CLint at 1 h,"[5]; male, SD, pooled, read-out: LMClint",264 µL/min/mg
same,"Remaining Percentages, 0.5 min",[6],100.00%
same,"Remaining Percentages, 15 min",[6],73.99%
same,"Remaining Percentages, 30 min",[6],79.28%
same,"Remaining Percentages, 60 min",[6],53.95%
same,"Remaining Percentages, 90 min",[6],34.15%
same,"Remaining Percentages, 120 min",[6],20.73%
same,half-life at 2 h,[6]; both sexes,54.9 min
same,hepatocyte CLint at 2 h,[6]; both sexes,25.3 µL/min/1e6 cells
same,logD at 2 h,[7],3.1
same,AUCinf,[8],11 677 h·nM
same,Cmax,[8],1510 nM
same,"fu, plasma % / %Unbound","[2]; 5 μM, equilibrium dialysis",4.53%
same,recovery,[2]; both sexes,94%
same,"fraction unbound at 6 h, 5 µM","[2]; both sexes, 5 μM, equilibrium dialysis, read-out: fu, plasma % / %Unbound",0.045
same,fraction unbound at 5 μM,[2]; both sexes,0.0453
same,"Remaining Percentages, 0.5 min",[9],100.00%
same,"Remaining Percentages, 15 min",[9],50.17%
same,"Remaining Percentages, 30 min",[9],21.78%
same,"Remaining Percentages, 60 min",[9],5.83%
same,"Remaining Percentages, 90 min",[9],1.83%
same,"Remaining Percentages, 120 min",[9],0.73%
same,half-life at 2 h,"[9]; male, SD",13.4 min
same,hepatocyte CLint at 2 h,"[9]; male, SD",103 µL/min/1e6 cells
same,Recovery% (BL-AP),Caco-2 cells,70.73%
same,recovery,P-gp (MDR1),56%
same,solubility,[10],14 µM
same,Recovery% (BL-AP),MDCKII-MDR1 cells,65.52%
same,"fu, plasma % / %Unbound",[4],7.2%
same,"fu, plasma % / %Unbound",[4]; listed as Bosutinib,7.20%
same,recovery,"[4]; both sexes, SD",91.1%
same,"remaining at 6 h, 5 μM","[4]; both sexes, SD",90.7%
same,fraction unbound at 5 μM,"[4]; both sexes, SD",0.072
same,"Remaining Percentage, 0.5 min",[11]; +Cofactors,100.00%
same,"Remaining Percentage, 15 min",[11]; +Cofactors,12.40%
same,"Remaining Percentage, 30 min",[11]; +Cofactors,2.94%
same,"Remaining Percentage, 45 min",[11]; +Cofactors,1.16%
same,"Remaining Percentage, 60 min",[11]; +Cofactors,BLOD
same,"Remaining Percentage, 0.5 min",[11]; -Cofactors,100.00%
same,"Remaining Percentage, 60 min",[11]; -Cofactors,91.23%
same,half-life at 1 h,"[11]; both sexes, pooled",4.8 min
same,microsomal CLint at 1 h,"[11]; both sexes, pooled, read-out: LMClint",288 µL/min/mg
same,IC50,"Molt-4 cells; Homo sapiens, MOLT-4, read-out: IC50, Molt-4",> 2000 nM
CN(N=O)C(=O)N[C@H]1C(O)O[C@H](CO)[C@@H](O)[C@@H]1O (mixture of isomers) [Streptozotocin],Count (# of wells),"Salmonella strain TA1535; TA1535+S9, 2.5E-06 M",48
same,Count (# of wells),"Salmonella strain TA1535; TA1535-S9, 2.5E-06 M",46
same,Count (# of wells),"Salmonella strain TA100; TA100+S9, 2.5E-06 M",19
same,Count (# of wells),"Salmonella strain TA100; TA100-S9, 2.5E-06 M",39
same,Count (# of wells),"Salmonella strain TA98; TA98+S9, 2.5E-06 M",6
same,Positive Significance (- to +++),"Salmonella strain TA98; TA98+S9, 2.5E-06 M","+ (weak positive, if P < 0.05)"
same,Count (# of wells),"Salmonella strain TA98; TA98-S9, 2.5E-06 M",1
same,Positive Significance (- to +++),"Salmonella strain TA98; TA98-S9, 2.5E-06 M",-
same,Count (# of wells),"Salmonella strain TA1537; TA1537+S9, 2.5E-06 M",0
same,Positive Significance (- to +++),"Salmonella strain TA1537; TA1537+S9, 2.5E-06 M",-
same,Count (# of wells),"Salmonella strain TA1537; TA1537-S9, 2.5E-06 M",1
same,Positive Significance (- to +++),"Salmonella strain TA1537; TA1537-S9, 2.5E-06 M",-
